Data on 37 compounds can be found in ChEMBL document CHEMBL3045154, “Synthesis and Insecticidal Activity of 1, 3-Dithianes” (1991).

Holding throughout (format): functional
In test [1] the test system is Henosepilachna vigintioctopunctata. As to the kind of experiment: Insecticidal activity against third-instar larvae of Henosepilachna vigintioctopunctata assessed as mortality at 100 ppm after 2 days. As to conditions: 48 h.
The test system of test [2] is Tetranychus urticae. Briefly: Insecticidal activity against Tetranychus urticae (two-spotted spider mite) in kidney bean plant leaf assessed as mortality at 500 ppm after 2 days. The conditions noted are these: 48 h.
The subject of test [3] is Chilo suppressalis. Briefly: Insecticidal activity against 5th instar larva of Chilo suppressalis assessed as mortality at 50 ug/g after 48 hr.

As for `CCOC(=O)C1(C(C)=O)SCC(N(C)C)CS1` (stereo unspecified), the mortality at 100 ppm in test [1] was 30%. Further, the mortality at 500 ppm in test [2] amounted to 100%. Moreover, in test [3], the mortality stood at 100%.

Take `CN(C)C1CSC(C#N)(C#N)SC1`: the mortality at 100 ppm in test [1] came to 100%. Moreover, the mortality at 500 ppm in test [2] amounted to 90%. Besides, in test [3], the mortality is on record as 100%.

Take `CC1SCC(N(C)C)CS1` (stereo unspecified): in test [1], the mortality at 100 ppm is 10%. Moreover, the mortality at 500 ppm in test [2] is 30%. For the same compound, the mortality in test [3] was 10%.

On to `N#CC1(c2ccc(Cl)cc2)SCC(N2CCCC2)CS1` (stereo unspecified), for which the mortality at 500 ppm in test [2] is 100%. In addition, the mortality in test [3] was 50%.

Consider `CC(C)C(C(=O)OC1CSC(C#N)(c2ccc(Cl)cc2)SC1)c1ccc(Cl)cc1` (stereo unspecified), for which, in test [2], the mortality at 500 ppm is 20%. Besides, in test [3], the mortality turned out to be 0%.

On to `CCOC(=O)C1(C(=O)c2ccccc2)SCC(N(C)C)CS1` (stereo unspecified), for which the mortality at 100 ppm in test [1] was found to be 30%. Moreover, in test [2], the mortality at 500 ppm came out at 90%. Besides, the mortality in test [3] worked out at 100%.

On to `CCOC(=O)C1(C#N)SCC(N(C)C)CS1` (stereo unspecified), for which the mortality at 100 ppm in test [1] stood at 60%. For the same compound, in test [2], the mortality at 500 ppm was 100%. Also, the mortality in test [3] is on record as 100%.

`CN(C)C1CSCSC1`: the mortality at 100 ppm in test [1] was determined as 10%. Also, in test [2], the mortality at 500 ppm worked out at 20%. Besides, in test [3], the mortality came out at 30%.

For `CCCCN(CCCC)C1CSC(C#N)(c2ccc(Cl)cc2)SC1` (stereo unspecified), the mortality at 500 ppm in test [2] was 100%. In addition, in test [3], the mortality turned out to be 50%.

On to `N#CC1(c2ccc(Cl)cc2)SCC(O)CS1` (stereo unspecified), for which the mortality at 500 ppm in test [2] was 30%. In test [3], the mortality stood at 0%.

For `CN(C)C1CSC(C#N)(c2ccc(Cl)cc2)SC1` (stereo unspecified), the mortality at 500 ppm in test [2] amounted to 100%. For the same compound, in test [3], the mortality amounted to 100%.

As to `CCN(CC)C(=S)SC1(C#N)SCC(N(C)C)CS1` (stereo unspecified), in test [1], the mortality at 100 ppm turned out to be 100%. The mortality at 500 ppm in test [2] is 90%. Further, the mortality in test [3] is on record as 100%.

On to `C/C(=N\Nc1ccc(Br)cc1)C1SCC(N(C)C)CS1` (stereo unspecified), for which the mortality at 100 ppm in test [1] stood at 45%. In addition, in test [2], the mortality at 500 ppm worked out at 80%. Further, the mortality in test [3] stood at 100%.

As to `CCOC(=O)C1(C(=O)OCC)SCC(N(C)C)CS1`, the mortality at 100 ppm in test [1] came to 85%. Moreover, the mortality at 500 ppm in test [2] turned out to be 100%. Further, the mortality in test [3] worked out at 100%.

`CC(=O)C1(C(=O)c2ccccc2)SCC(N(C)C)CS1` (stereo unspecified): the mortality at 100 ppm in test [1] stood at 35%. Besides, the mortality at 500 ppm in test [2] was found to be 80%. The mortality in test [3] is on record as 100%.

Consider `CN(C)C1CSSC1` [NEREISTOXIN], for which the mortality at 500 ppm in test [2] is 30%. For the same compound, in test [3], the mortality worked out at 100%.

Regarding `CCN(CC)C1CSC(C#N)(c2ccc(Cl)cc2)SC1` (stereo unspecified), the mortality at 500 ppm in test [2] worked out at 100%. Also, the mortality in test [3] stood at 100%.

For the compound `N#CC1(c2ccc(Cl)cc2)SCC(OC(=O)Nc2ccc(Cl)cc2)CS1` (stereo unspecified), the mortality at 500 ppm in test [2] amounted to 60%. In addition, in test [3], the mortality came out at 0%.

With `CCOP(=S)(OCC)OC1CSC(C#N)(c2ccc(Cl)cc2)SC1` (stereo unspecified), the mortality at 500 ppm in test [2] came to 40%. The mortality in test [3] was determined as 0%.

On to `CN(C)C1CSC(C#N)(c2ccccc2)SC1` (stereo unspecified), for which the mortality at 100 ppm in test [1] was determined as 30%. The mortality at 500 ppm in test [2] amounted to 100%. Also, the mortality in test [3] came out at 100%.

Take `CC(=O)C1(C(C)=O)SCC(N(C)C)CS1`: the mortality at 100 ppm in test [1] came to 70%. For the same compound, the mortality at 500 ppm in test [2] was 40%. The mortality in test [3] is 100%.

For `CNC(=O)C1(C#N)SCC(N(C)C)CS1` (stereo unspecified), the mortality at 100 ppm in test [1] is 85%. The mortality at 500 ppm in test [2] came out at 100%. Besides, the mortality in test [3] is 100%.

For the compound `CCOC(=O)C1SCC(N(C)C)CS1` (stereo unspecified), the mortality at 100 ppm in test [1] came out at 45%. In test [2], the mortality at 500 ppm came to 100%. The mortality in test [3] amounted to 80%.

For `CN(C)C1CSC(C#N)SC1` (stereo unspecified), the mortality at 100 ppm in test [1] stood at 30%. In addition, the mortality at 500 ppm in test [2] came out at 80%. In addition, the mortality in test [3] came out at 100%.

For `CCCC1(C#N)SCC(N(C)C)CS1` (stereo unspecified), in test [1], the mortality at 100 ppm amounted to 30%. In test [2], the mortality at 500 ppm came to 70%. For the same compound, the mortality in test [3] is 100%.

Take `N#CC1(C(=O)O)SCCCS1`: the mortality at 500 ppm in test [2] stood at 0%. Besides, in test [3], the mortality was determined as 0%.

`CCOP(=O)(OCC)C1(C#N)SCC(N(C)C)CS1` (stereo unspecified): the mortality at 100 ppm in test [1] is 5%. Also, the mortality at 500 ppm in test [2] amounted to 100%. Besides, the mortality in test [3] amounted to 100%.

As to `CN(C)C1CSC(C(=O)c2ccccc2)(C(=O)c2ccccc2)SC1`, the mortality at 100 ppm in test [1] came out at 100%. For the same compound, in test [2], the mortality at 500 ppm was found to be 80%. Also, in test [3], the mortality worked out at 100%.

As to `N#CC1(c2ccc(Cl)cc2)SCC(N2CCOCC2)CS1` (stereo unspecified), the mortality at 500 ppm in test [2] amounted to 90%. Besides, the mortality in test [3] was determined as 50%.

Turning to `CC(=O)C1SCC(N(C)C)CS1` (stereo unspecified), the mortality at 100 ppm in test [1] worked out at 65%. In addition, the mortality at 500 ppm in test [2] came out at 100%. Also, the mortality in test [3] is 100%.

Consider `O=C(c1ccccc1)C1(C(=O)c2ccccc2)SCC(O)CS1`, for which the mortality at 500 ppm in test [2] was 40%. In addition, in test [3], the mortality is on record as 0%.

As for `CN(C)C1CSC(C(=O)c2ccccc2)SC1` (stereo unspecified), the mortality at 100 ppm in test [1] stood at 80%. For the same compound, the mortality at 500 ppm in test [2] amounted to 50%. Further, the mortality in test [3] worked out at 100%.

Take `CN(C)C1CSC(C(N)=O)(C(N)=O)SC1`: the mortality at 100 ppm in test [1] was found to be 100%. Further, the mortality at 500 ppm in test [2] was 60%. Also, the mortality in test [3] was determined as 100%.

Take `CN(C)C1CSC(C#N)(C(N)=O)SC1` (stereo unspecified): the mortality at 100 ppm in test [1] was 85%. Further, the mortality at 500 ppm in test [2] was determined as 100%. For the same compound, the mortality in test [3] is 100%.

For the compound `CNC1CSC(C#N)(c2ccc(Cl)cc2)SC1` (stereo unspecified), in test [2], the mortality at 500 ppm was 30%. In addition, the mortality in test [3] came to 10%.

As to `N#CC1(c2ccc(Cl)cc2)SCCCS1`, the mortality at 500 ppm in test [2] is 0%. Further, the mortality in test [3] is 0%.

Turning to `CNC(=O)OC1CSC(C#N)(c2ccc(Cl)cc2)SC1` (stereo unspecified), in test [2], the mortality at 500 ppm was 30%. Moreover, the mortality in test [3] was found to be 0%.

One may read the mortality as the percentage killed.
